Assays:
[1] = system: Prunus dulcis; assay: Inhibition of almond beta-glucosidase using p-nitrophenyl glycoside as substrate at 1000 uM by spectrometric method relative to control
[2] = species on record: Bos taurus; assay: Inhibition of bovine liver beta-glucosidase using p-nitrophenyl glycoside as substrate at 1000 uM by spectrometric method relative to control; type: tissue-based
[3] = molecular target: Alpha-galactosidase (Coffea arabica) (UniProt Q42656); assay: Inhibition of coffee bean alpha-galactosidase using p-nitrophenyl glycoside as substrate at 1000 uM by spectrometric method relative to control
[4] = species on record: Sus scrofa; assay: Inhibition of porcine kidney alpha/alpha-trehalase using p-nitrophenyl glycoside as substrate at 1000 uM by spectrometric method relative to control; type: tissue-based
[5] = species on record: Rattus norvegicus; assay: Inhibition of rat intestinal maltase using maltose as substrate at 1000 uM at pH 6.8 by colorimetric method relative to control; type: tissue-based; conditions: Intestine
[6] = system: Penicillium decumbens; assay: Inhibition of Penicillium decumbens alpha-L-rhamnosidase using p-nitrophenyl glycoside as substrate at 1000 uM by spectrometric method relative to control
[7] = species on record: Bos taurus; assay: Inhibition of bovine liver beta-glucuronidase using p-nitrophenyl glycoside as substrate at 1000 uM by spectrometric method relative to control; type: tissue-based
[8] = molecular target: T1, Tissue alpha-L-fucosidase (Bos taurus) (UniProt Q2KIM0); assay: Inhibition of bovine kidney alpha-L-fucosidase using p-nitrophenyl glycoside as substrate at 1000 uM by spectrometric method relative to control; type: tissue-based
T1 sequence (whole entry): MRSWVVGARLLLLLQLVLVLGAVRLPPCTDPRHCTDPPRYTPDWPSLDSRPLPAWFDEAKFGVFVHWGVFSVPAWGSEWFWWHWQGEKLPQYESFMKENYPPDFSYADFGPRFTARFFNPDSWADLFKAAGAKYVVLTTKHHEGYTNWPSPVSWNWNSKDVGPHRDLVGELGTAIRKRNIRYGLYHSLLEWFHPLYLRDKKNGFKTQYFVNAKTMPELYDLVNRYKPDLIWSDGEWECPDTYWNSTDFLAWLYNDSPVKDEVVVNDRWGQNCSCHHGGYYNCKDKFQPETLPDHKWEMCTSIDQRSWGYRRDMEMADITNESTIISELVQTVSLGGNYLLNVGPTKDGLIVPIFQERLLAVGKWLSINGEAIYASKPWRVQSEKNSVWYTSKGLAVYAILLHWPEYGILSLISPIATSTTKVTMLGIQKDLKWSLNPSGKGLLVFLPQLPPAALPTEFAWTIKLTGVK

[9] = system: Helix pomatia; assay: Inhibition of snail beta-mannosidase using p-nitrophenyl glycoside as substrate at 1000 uM by spectrometric method relative to control
[10] = Inhibition of Aspergillus niger amyloglucosidase using p-nitrophenyl glycoside as substrate by spectrometric method
[11] = molecular target: Alpha-glucosidase (Saccharomyces cerevisiae S288c) (UniProt P53341+P38158+P07265); assay: Inhibition of yeast alpha-glucosidase using p-nitrophenyl glycoside as substrate at 1000 uM by spectrometric method relative to control; type: protein assay
[12] = system: Oryza sativa; assay: Inhibition of rice alpha-glucosidase using p-nitrophenyl glycoside as substrate at 1000 uM by spectrometric method relative to control
[13] = system: Escherichia coli; assay: Inhibition of Escherichia coli beta-glucuronidase using p-nitrophenyl glycoside as substrate at 1000 uM by spectrometric method relative to control
[14] = molecular target: T2, Alpha-mannosidase (Canavalia ensiformis) (UniProt C0HJB3); assay: Inhibition of jack bean alpha-mannosidase using p-nitrophenyl glycoside as substrate at 1000 uM by spectrometric method relative to control
T2 sequence (whole entry): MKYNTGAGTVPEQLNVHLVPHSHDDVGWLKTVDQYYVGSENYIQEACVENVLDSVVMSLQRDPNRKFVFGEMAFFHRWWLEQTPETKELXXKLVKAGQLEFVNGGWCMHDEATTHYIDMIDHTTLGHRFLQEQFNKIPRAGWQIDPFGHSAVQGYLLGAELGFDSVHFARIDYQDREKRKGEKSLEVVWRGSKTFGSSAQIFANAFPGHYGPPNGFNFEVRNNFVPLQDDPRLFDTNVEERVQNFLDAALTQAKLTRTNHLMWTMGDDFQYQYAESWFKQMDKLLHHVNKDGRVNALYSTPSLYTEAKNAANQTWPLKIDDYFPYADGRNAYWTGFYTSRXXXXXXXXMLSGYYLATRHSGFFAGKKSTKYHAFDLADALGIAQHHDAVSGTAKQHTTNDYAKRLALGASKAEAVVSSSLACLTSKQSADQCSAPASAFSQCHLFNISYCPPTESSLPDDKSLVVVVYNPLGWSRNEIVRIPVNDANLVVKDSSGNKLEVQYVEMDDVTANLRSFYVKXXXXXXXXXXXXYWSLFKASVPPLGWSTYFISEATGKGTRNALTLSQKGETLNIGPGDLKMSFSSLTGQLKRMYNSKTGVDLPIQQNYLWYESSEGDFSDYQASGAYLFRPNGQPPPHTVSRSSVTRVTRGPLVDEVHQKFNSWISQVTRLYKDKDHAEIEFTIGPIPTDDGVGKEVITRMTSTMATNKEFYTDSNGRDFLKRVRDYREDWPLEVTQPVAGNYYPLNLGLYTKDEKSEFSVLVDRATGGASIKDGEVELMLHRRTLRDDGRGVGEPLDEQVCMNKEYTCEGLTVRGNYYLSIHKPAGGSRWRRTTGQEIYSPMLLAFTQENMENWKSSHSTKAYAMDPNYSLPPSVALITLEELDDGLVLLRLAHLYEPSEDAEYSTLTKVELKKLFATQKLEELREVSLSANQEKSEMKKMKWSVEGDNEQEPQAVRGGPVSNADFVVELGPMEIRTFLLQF

[15] = species on record: Bos taurus; assay: Inhibition of bovine liver beta-galactosidase using p-nitrophenyl glycoside as substrate at 1000 uM by spectrometric method relative to control; type: tissue-based
[16] = Inhibition of rice alpha-glucosidase using p-nitrophenyl glycoside as substrate by spectrometric method; design: species or system Oryza sativa
[17] = Inhibition of rat intestinal maltase using maltose as substrate at pH 6.8 by colorimetric method; type: tissue-based, Intestine
[18] = molecular target: Alpha-glucosidase (Saccharomyces cerevisiae S288c, UniProt P53341+P38158+P07265); assay: Inhibition of yeast alpha-glucosidase using p-nitrophenyl glycoside as substrate by spectrometric method; type: protein assay
[19] = Inhibition of porcine kidney alpha/alpha-trehalase using p-nitrophenyl glycoside as substrate by spectrometric method; design: species or system Sus scrofa

Chain of Alpha-galactosidase (Coffea arabica) (Q42656 16-378 limits assumed): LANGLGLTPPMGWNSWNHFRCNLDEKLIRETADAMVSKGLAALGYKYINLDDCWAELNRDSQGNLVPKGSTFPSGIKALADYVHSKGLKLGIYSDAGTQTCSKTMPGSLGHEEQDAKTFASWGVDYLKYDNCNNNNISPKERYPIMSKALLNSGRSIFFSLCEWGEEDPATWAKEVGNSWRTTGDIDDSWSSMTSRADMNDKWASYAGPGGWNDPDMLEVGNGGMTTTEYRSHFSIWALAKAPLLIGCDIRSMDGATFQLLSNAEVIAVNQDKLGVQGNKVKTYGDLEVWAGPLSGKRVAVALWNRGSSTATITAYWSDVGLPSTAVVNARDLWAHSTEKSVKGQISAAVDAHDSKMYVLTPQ

Row | SMILES | inhibition [1] [%] | inhibition [2] [%] | inhibition [3] [%] | inhibition [4] [%] | inhibition [5] [%] | inhibition [6] [%] | inhibition [7] [%] | inhibition [8] [%] | inhibition [9] [%] | IC50 [10] [µM] | pIC50 [10] | inhibition [11] [%] | inhibition [12] [%] | inhibition [13] [%] | inhibition [14] [%] | inhibition [15] [%] | IC50 [16] [µM] | IC50 [17] [µM] | IC50 [18] [µM] | IC50 [19] [µM]
1 | OC[C@@H]1[C@@H](O)[C@H](O)[C@H]2C[C@H](F)CN12 | 36.8 | 25.5 | 2.9 | 23 | 7.9 | 9.9 | 14.8 | 0 | 0 | 2.2 | 5.658 | 0 | 10 | 0 | 0 | 25.8 | – | – | – | –
2 | OC[C@@H]1[C@@H](O)[C@H](O)[C@H]2C[C@@H](F)CN12 | 17.7 | 24.3 | 6.7 | 42.3 | 30.9 | 4.9 | 21.9 | 0.9 | 4.3 | 633 | 3.199 | 30.1 | 17.7 | 1.2 | 2.3 | 29.9 | – | – | – | –
3 | OC[C@@H]1[C@@H](O)[C@H](O)[C@H]2CC(F)(F)CN12 | 11.4 | 12.5 | 1.6 | 3.2 | 7.9 | 3 | 0 | 0 | 0 | 27 | 4.569 | 3.6 | 15.4 | 0 | 0 | 22.4 | – | – | – | –
4 | OC[C@@H]1[C@@H](O)[C@H](O)[C@H]2[C@@H](O)[C@@H](F)CN21 | 13.6 | 35.9 | 0 | 30.4 | – | 1.7 | 13.3 | 14 | 0 | 248 | 3.606 | 18 | – | 7 | 3.3 | 38 | 350 | 927 | – | –
5 | OC[C@@H]1[C@@H](O)[C@H](O)[C@H]2C[C@H](O)CN12 | 10.5 | 13.9 | 4.5 | – | – | 11.2 | 14 | 0 | 2.4 | 42 | 4.377 | – | 12.4 | 4.3 | 2.2 | 25.4 | – | 248 | 466 | 22
6 | OC[C@@H]1[C@@H](O)[C@H](O)[C@H]2[C@@H](O)C(F)(F)CN21 | 3.5 | 12 | 0.2 | 9.2 | 28.4 | 0 | 10.1 | 6.4 | 0 | 246 | 3.609 | 5.6 | 7.7 | 2.6 | 0.8 | 6.2 | – | – | – | –

Source: ChEMBL document CHEMBL5247629, “C-6 fluorinated casuarines as highly potent and selective amyloglucosidase inhibitors: Synthesis and structure-activity relationship study” (Eur J Med Chem, 2022)
